Assays:
[1] = Half life in mouse at 3 mg/kg, iv; format: ADME, organism-based; details: in vivo
[2] = Inhibition of CYP2D9 (unknown origin); format: ADME, Homo sapiens
[3] = Tlast in mouse at 20 mg/kg, po; format: ADME, organism-based; details: in vivo
[4] = Solubility of the compound; format: physicochemical
[5] = MRT in mouse at 20 mg/kg, po; format: ADME, organism-based; details: in vivo
Toll-like receptor 4 = molecular target: T1, Toll-like receptor 4 (Mus musculus, UniProt Q9QUK6); test: Antagonist activity at TLR4 in mouse Whole blood cell assessed as reduction in IL-6 level measured after 20 hrs by HTRF method; format: tissue-based
T1 sequence (Q9QUK6 whole entry): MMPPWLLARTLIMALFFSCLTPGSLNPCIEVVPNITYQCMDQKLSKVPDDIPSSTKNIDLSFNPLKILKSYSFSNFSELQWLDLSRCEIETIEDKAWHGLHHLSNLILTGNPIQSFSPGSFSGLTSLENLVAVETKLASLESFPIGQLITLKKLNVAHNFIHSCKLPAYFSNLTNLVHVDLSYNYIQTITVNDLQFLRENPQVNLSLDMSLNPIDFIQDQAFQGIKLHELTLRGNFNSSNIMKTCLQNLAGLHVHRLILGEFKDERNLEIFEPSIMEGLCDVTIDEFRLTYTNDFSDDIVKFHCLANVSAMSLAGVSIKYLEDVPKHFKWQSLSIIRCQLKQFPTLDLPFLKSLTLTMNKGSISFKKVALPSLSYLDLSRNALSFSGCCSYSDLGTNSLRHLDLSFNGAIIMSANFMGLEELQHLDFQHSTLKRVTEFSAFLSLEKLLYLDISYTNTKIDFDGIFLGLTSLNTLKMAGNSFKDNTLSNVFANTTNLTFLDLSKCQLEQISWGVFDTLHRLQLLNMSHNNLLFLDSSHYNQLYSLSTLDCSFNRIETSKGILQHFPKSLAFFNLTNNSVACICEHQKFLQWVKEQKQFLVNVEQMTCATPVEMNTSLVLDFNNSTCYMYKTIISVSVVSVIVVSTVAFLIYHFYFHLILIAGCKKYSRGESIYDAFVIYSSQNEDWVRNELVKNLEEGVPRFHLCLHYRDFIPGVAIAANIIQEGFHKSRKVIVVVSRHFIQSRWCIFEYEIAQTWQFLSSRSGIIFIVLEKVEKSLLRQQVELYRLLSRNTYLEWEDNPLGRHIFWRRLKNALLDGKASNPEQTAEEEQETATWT

Toll-like receptor 7 = molecular target: T2, Toll-like receptor 7 (Mus musculus, UniProt P58681); test: Antagonist activity at TLR7 in mouse Whole blood cell assessed as reduction in IFN-alpha level measured after 20 hrs by AlphaLISA method; format: tissue-based
T2 sequence (P58681 whole entry): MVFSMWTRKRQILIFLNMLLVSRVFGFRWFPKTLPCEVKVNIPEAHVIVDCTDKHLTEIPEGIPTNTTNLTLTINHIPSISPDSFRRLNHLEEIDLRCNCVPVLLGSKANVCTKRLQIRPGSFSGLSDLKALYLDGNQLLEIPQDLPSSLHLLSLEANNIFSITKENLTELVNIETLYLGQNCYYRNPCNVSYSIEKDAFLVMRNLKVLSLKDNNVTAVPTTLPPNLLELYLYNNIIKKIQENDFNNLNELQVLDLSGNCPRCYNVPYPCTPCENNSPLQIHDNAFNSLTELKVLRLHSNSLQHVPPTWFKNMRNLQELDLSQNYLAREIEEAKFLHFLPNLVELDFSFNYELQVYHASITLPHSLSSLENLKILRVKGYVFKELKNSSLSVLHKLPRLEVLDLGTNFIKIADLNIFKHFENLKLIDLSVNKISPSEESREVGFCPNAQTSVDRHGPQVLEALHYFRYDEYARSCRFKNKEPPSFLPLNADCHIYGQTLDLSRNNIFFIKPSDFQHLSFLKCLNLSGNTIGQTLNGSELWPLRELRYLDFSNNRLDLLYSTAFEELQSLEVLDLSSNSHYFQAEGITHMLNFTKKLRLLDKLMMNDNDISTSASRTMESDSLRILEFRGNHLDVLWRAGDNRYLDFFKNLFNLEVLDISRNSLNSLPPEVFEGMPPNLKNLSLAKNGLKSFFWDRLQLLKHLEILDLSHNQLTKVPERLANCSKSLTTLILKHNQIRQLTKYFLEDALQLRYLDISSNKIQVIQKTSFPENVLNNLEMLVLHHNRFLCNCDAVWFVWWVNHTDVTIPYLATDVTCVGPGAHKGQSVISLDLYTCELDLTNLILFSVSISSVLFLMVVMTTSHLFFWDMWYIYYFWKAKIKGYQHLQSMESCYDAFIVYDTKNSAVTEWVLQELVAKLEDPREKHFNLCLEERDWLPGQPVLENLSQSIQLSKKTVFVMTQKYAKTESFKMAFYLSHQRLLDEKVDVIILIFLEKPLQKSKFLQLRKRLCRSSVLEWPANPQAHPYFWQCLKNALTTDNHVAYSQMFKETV

[6] = molecular target: Toll-like receptor 7 (Mus musculus) (UniProt P58681); test: In vivo antagonist activity against TLR7 in mouse assessed as suppression of IFN alpha level at 3 mg/kg, po measured at 3 hrs by LC-MS/MS analysis
[7] = molecular target: Toll-like receptor 7 (Mus musculus) (UniProt P58681); test: In vivo antagonist activity against TLR7 in mouse assessed as inhibition of IL-6 level at 10 mg/kg, po measured after 2 hrs by LC-MS/MS analysis relative to control

t1/2 [1] [h]	IC50 [2] [µM]	Tlast [3] [h]	solubility [4] [µM]	MRT [5] [h]	SMILES	IC50 (Toll-like receptor 4) [µM]	IC50 (Toll-like receptor 7) [nM]	Activity [6] [ng/mL]	inhibition in vivo at 10 mg/kg [7] [%]
2.1	> 25	7	> 175	2.9	Cc1cc(N2CCc3c(c(C)nn3CC34CCC(N)(CC3)CC4)C2)c2cnn(C)c2n1	–	–	–	–
–	–	–	–	–	Cc1cc(N2CCc3c(c(C)nn3CC34CCC(NC(=O)[C@@H]5COCCN5)(CC3)CC4)C2)c2cnn(C)c2n1 [MHV-370]	> 10	51	141	~100

— ChEMBL document CHEMBL5360657, “Discovery of the TLR7/8 Antagonist MHV370 for Treatment of Systemic Autoimmune Diseases” (ACS Med Chem Lett, 2023)
